Results: ChEMBL document CHEMBL1177737, “Bioactive 1,4-dihydroxy-5-phenyl-2-pyridinone alkaloids from Septoria pistaciarum” (J Nat Prod, 2010)
Converted amounts (≈) assume the structure as drawn. The source made the active and inactive calls. No cut-off for these calls is given here.

Experiments:
Plasmodium falciparum [1] = test: Antiplasmodial activity against chloroquine-sensitive Plasmodium falciparum D6 after 72 hrs by LDH assay; type: functional, organism-based
Plasmodium falciparum [2] = test: Antiplasmodial activity against chloroquine-resistant Plasmodium falciparum W2 after 72 hrs by LDH assay; type: functional, organism-based
Vero [3] = test: Cytotoxicity against african green monkey Vero cell after 48 hrs by Neutral Red dye; type: cell-based, Chlorocebus sabaeus
Staphylococcus aureus [4] = test: Antimicrobial activity against Staphylococcus aureus ATCC 29213 by CLSI method; type: functional, organism-based
Staphylococcus aureus [5] = test: Antimicrobial activity against methicillin-resistant Staphylococcus aureus ATCC 33591 by CLSI method; type: functional, organism-based
Candida albicans [6] = test: Antimicrobial activity against Candida albicans ATCC 90028 at 20 ug/ml by CLSI method; type: functional, organism-based
Aspergillus fumigatus [7] = test: Antimicrobial activity against Aspergillus fumigatus ATCC 90906 at 20 ug/ml by CLSI method; type: functional, organism-based
SK-MEL [8] = test: Cytotoxicity against human SK-MEL cells at 10 ug/ml after 48 hrs by Neutral Red dye; type: functional, cell-based
KB [9] = test: Cytotoxicity against human KB cells at 10 ug/ml after 48 hrs by Neutral Red dye; type: functional, cell-based
BT-549 [10] = test: Cytotoxicity against human BT549 cells at 10 ug/ml after 48 hrs by Neutral Red dye; type: functional, cell-based
SK-OV-3 [11] = test: Cytotoxicity against human SKOV3 cells at 10 ug/ml after 48 hrs by Neutral Red dye; type: functional, cell-based
[12] = Cytotoxicity against pig LLC-PK11 cells at 10 ug/ml after 48 hrs by Neutral Red dye; type: cell-based, Sus scrofa
Vero [13] = test: Cytotoxicity against african green monkey Vero cell at 10 ug/ml after 48 hrs by Neutral Red dye; type: cell-based, Chlorocebus sabaeus
Candida albicans [14] = test: Antimicrobial activity against Candida albicans ATCC 90028 by CLSI method; type: functional, organism-based
Aspergillus fumigatus [15] = test: Antimicrobial activity against Aspergillus fumigatus ATCC 90906 by CLSI method; type: functional, organism-based
KB [16] = test: Cytotoxicity against human KB cells after 48 hrs by Neutral Red dye; type: functional, cell-based
BT-549 [17] = test: Cytotoxicity against human BT549 cells after 48 hrs by Neutral Red dye; type: functional, cell-based; conditions: BT-549, 48 h
SK-OV-3 [18] = test: Cytotoxicity against human SKOV3 cells after 48 hrs by Neutral Red dye; type: functional, cell-based; conditions: SK-OV-3, 48 h
[19] = Selectivity index, ratio of IC50 for african green monkey (Cercopithecus aethiops) Vero cells to IC50 for chloroquine-sensitive Plasmodium falciparum D6; type: toxicity, cell-based; conditions: read-out: Ratio IC50
[20] = Selectivity index, ratio of IC50 for african green monkey (Cercopithecus aethiops) Vero cells to IC50 for chloroquine-resistant Plasmodium falciparum W2; type: toxicity, cell-based; conditions: read-out: Ratio IC50
Staphylococcus aureus [21] = test: Antimicrobial activity against Staphylococcus aureus ATCC 29213 at 20 ug/ml by CLSI method; type: functional, organism-based
Staphylococcus aureus [22] = test: Antimicrobial activity against methicillin-resistant Staphylococcus aureus ATCC 33591 at 20 ug/ml by CLSI method; type: functional, organism-based
SK-MEL [23] = test: Cytotoxicity against human SK-MEL cells after 48 hrs by Neutral Red dye; type: functional, cell-based
[24] = Cytotoxicity against pig LLC-PK11 cells after 48 hrs by Neutral Red dye; type: cell-based; conditions: Sus scrofa, LLC-PK11, 48 h
[25] = Chlorocebus sabaeus, Vero, 48 h, read-out: IC50

Q: Which results are given for `CC[C@@H](C)[C@H]1O[C@@H](c2c(O)c(-c3ccccc3)cn(OC)c2=O)[C@H](C)C[C@@H]1C`?
A: IC50 (Plasmodium falciparum [1]): Not Active; IC50 (Plasmodium falciparum [2]): Not Active; IC50 (Vero [3]; vero): Non-toxic; MIC (Staphylococcus aureus [4]; Staphylococcus aureus, ATCC 29213): 5 µg/mL (≈ 13 µM); IC50 (Staphylococcus aureus [4]; Staphylococcus aureus, ATCC 29213, read-out: IC50): 2.79 µg/mL (≈ 7.24 µM); IC50 (Staphylococcus aureus [5]): 2.99 µg/mL (≈ 7.76 µM); MIC (Staphylococcus aureus [5]): 5 µg/mL (≈ 13 µM); IC50 (Candida albicans [6]): Not Active; MIC (Candida albicans [6]): inactive; IC50 (Aspergillus fumigatus [7]): Not Active; MIC (Aspergillus fumigatus [7]): inactive; IC50 (SK-MEL [8]): Not Active; IC50 (KB [9]): Not Active; IC50 (BT-549 [10]): Not Active; IC50 (SK-OV-3 [11]): Not Active; IC50 [12]: Not Active; IC50 (Vero [13]): Not Active

Q: What does the source list for `COn1cc(-c2ccccc2)c(O)c([C@@H]2O[C@H]([C@H](C)CCO)[C@@H](C)C[C@H]2C)c1=O`?
A: IC50 (Plasmodium falciparum [1]): Not Active; IC50 (Plasmodium falciparum [2]): Not Active; IC50 (Vero [3]; vero): Non-toxic

Q: With `COn1cc(-c2ccccc2)c(O)c([C@@H]2O[C@H]([C@H](C)CCOC(C)=O)[C@@H](C)C[C@H]2C)c1=O` as the compound, how does the IC50 (Plasmodium falciparum [1]) read?
A: Not Active

Q: And the IC50 (Plasmodium falciparum [2])?
A: Not Active

Q: What about the IC50 (Vero [3]; vero) of the same compound?
A: Non-toxic

Q: For `C[C@@H]1[C@H](O)[C@@H](C)/C=C/C=C/C=C/C=C/C=C/C=C/C=C/[C@H](O[C@@H]2O[C@H](C)[C@@H](O)[C@H](N)[C@@H]2O)C[C@@H]2O[C@](O)(C[C@@H](O)C[C@@H](O)[C@H](O)CC[C@@H](O)C[C@@H](O)CC(=O)O[C@H]1C)C[C@H](O)[C@H]2C(=O)O` [AMPHOTERICIN B], which IC50 (Candida albicans [14]) is on record?
A: 0.42 µg/mL (≈ 0.455 µM)

Q: What about the MIC (Candida albicans [14]) of the same compound?
A: 2.5 µg/mL (≈ 2.71 µM)

Q: What about the IC50 (Aspergillus fumigatus [15]) of the same compound?
A: 1.16 µg/mL (≈ 1.26 µM)

Q: And the MIC (Aspergillus fumigatus [15])?
A: 2.5 µg/mL (≈ 2.71 µM)

Q: For `C[C@@H]1CC[C@H]2[C@@H](C)C(=O)O[C@@H]3O[C@@]4(C)CC[C@@H]1[C@]32OO4` [ARTEMISININ], which IC50 (Vero [3]; vero) is on record?
A: Non-toxic

Q: Which IC50 (Vero [3]; vero) does the source give for `CCN(CC)CCCC(C)Nc1ccnc2cc(Cl)ccc12` (centres undefined) [CHLOROQUINE] here?
A: Non-toxic

Q: Which results are given for `COc1cccc2c1C(=O)c1c(O)c3c(c(O)c1C2=O)C[C@@](O)(C(=O)CO)C[C@@H]3O[C@H]1C[C@H](N)[C@H](O)[C@H](C)O1` [DOXORUBICIN]?
A: IC50 (Vero [3]; [25]): > 5 µg/mL; IC50 (KB [16]): 1.35 µg/mL (≈ 2.48 µM); IC50 (BT-549 [17]): 0.8 µg/mL (≈ 1.47 µM); IC50 (SK-OV-3 [18]): 1.2 µg/mL (≈ 2.21 µM)

Q: With `CC[C@@H](C)[C@H]1O[C@@H](c2c(O)c(-c3ccccc3)cn(O)c2=O)[C@H](C)C[C@@H]1C` [SEPTORIAMYCIN A] as the compound, how does the IC50 (Vero [3]; [25]) read?
A: 1.3 µg/mL (≈ 3.5 µM)

Q: What about the selectivity ratio [19] of the same compound?
A: 3.9

Q: And the selectivity ratio [20]?
A: 6.5

Q: And the IC50 (Candida albicans [14])?
A: 12.1 µg/mL (≈ 32.5 µM)

Q: What about the IC50 (Aspergillus fumigatus [15]) of the same compound?
A: 8.76 µg/mL (≈ 23.6 µM)

Q: And the IC50 (Staphylococcus aureus [4])?
A: Not Active

Q: And the MIC (Staphylococcus aureus [4])?
A: inactive

Q: What about the IC50 (Staphylococcus aureus [21]) of the same compound?
A: Not Active

Q: What about the MIC (Staphylococcus aureus [21]) of the same compound?
A: inactive

Q: And the IC50 (Staphylococcus aureus [22])?
A: Not Active

Q: What about the MIC (Staphylococcus aureus [22]) of the same compound?
A: inactive

Q: And the IC50 (SK-MEL [23])?
A: 1.5 µg/mL (≈ 4.04 µM)

Q: What about the IC50 (KB [16]) of the same compound?
A: 5 µg/mL (≈ 13.5 µM)

Q: What about the IC50 (BT-549 [17]) of the same compound?
A: 1.65 µg/mL (≈ 4.44 µM)

Q: What about the IC50 (SK-OV-3 [18]) of the same compound?
A: 2.6 µg/mL (≈ 7 µM)

Q: And the IC50 [24]?
A: 1.65 µg/mL (≈ 4.44 µM)
